From PubChem BioAssay (NCI)
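48-hour exposure; five concentrations; linearly interpolated endpoints. GI50 marks 50% less growth. At the TGI there is no net growth.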

Legend:
Assay in all cases: growth of human tumour cells (NCI), 48 h
SK-MEL-28 melanoma = system: SK-MEL-28 melanoma
IGROV1 ovarian = system: IGROV1 ovarian
OVCAR-8 ovarian = system: OVCAR-8 ovarian
KM12 colon = system: KM12 colon
NCI-H23 lung = system: NCI-H23 lung
UACC-62 melanoma = system: UACC-62 melanoma
SF-268 CNS = system: SF-268 CNS
LOX IMVI melanoma = system: LOX IMVI melanoma
HOP-92 NSCLC = system: HOP-92 NSCLC
CCRF-CEM leukemia = system: CCRF-CEM leukemia

SMILES | TGI (SK-MEL-28 melanoma) [µM] | TGI (IGROV1 ovarian) [µM] | TGI (OVCAR-8 ovarian) [µM] | TGI (KM12 colon) [µM] | TGI (NCI-H23 lung) [µM] | TGI (UACC-62 melanoma) [µM] | TGI (SF-268 CNS) [µM] | TGI (LOX IMVI melanoma) [µM] | TGI (HOP-92 NSCLC) [µM] | TGI (CCRF-CEM leukemia) [µM] | GI50 (SK-MEL-28 melanoma) [µM] | GI50 (IGROV1 ovarian) [µM] | GI50 (OVCAR-8 ovarian) [µM] | GI50 (KM12 colon) [µM] | GI50 (NCI-H23 lung) [µM] | GI50 (UACC-62 melanoma) [µM] | GI50 (LOX IMVI melanoma) [µM] | GI50 (HOP-92 NSCLC) [µM] | GI50 (CCRF-CEM leukemia) [µM]
O=C1CSc2sc(=S)sc2S1 | > 100 | > 100 | > 100 | > 100 | > 100 | > 100 | > 100 | > 100 | > 100 | > 100 |  |  |  |  |  |  |  |  | 
CN(CCNC(=O)c1cn(C)c2c1ccc1cc(Cl)ccc12)CCNC(=O)c1cn(C)c2c1ccc1cc(Cl)ccc12 | 10.9 | 21.6 | 33.8 | 3.03 | 4.87 | 10.8 | 3.51 | 34 | 18.8 | 66 |  |  |  |  |  |  |  |  | 
Cc1ccc(NC(=O)CC(=O)n2nc(-c3ccccc3)c(N=Nc3ccccc3C(=O)O)c2-c2ccccc2)cc1 | > 100 | > 100 | > 100 | > 100 |  | > 100 | > 100 | > 100 | > 100 |  |  |  |  |  |  |  |  |  | 
CC1C(O)[C@@]2(OC[C@@]34C(=O)CC5(O)[C@H](CCC6Cc7nc8c(nc7C[C@]65C)CC5CC[C@@H]6C7=C[C@H]9O[C@@]%10(O[C@@](C)(CO)C[C@@H]%10O)C(C)[C@@]9(O)[C@]7(C)[C@@H](O)CC6[C@]5(C)C8)C3=CC[C@H]4C2C)OC1(C)C (some centres undefined) |  | > 3.55 | > 3.55 | > 3.55 | 0.435 | 0.00489 | 0.37 | 0.864 | 3.25 | 0.0966 |  |  |  |  |  |  |  |  | 
COC[C@@H]1Cc2cc(OC)c3c(c2[C@H](c2ccc(OC)c(OC)c2)[C@H]1COC)OCO3 | > 100 | > 100 | > 100 | > 100 | > 100 | > 100 | > 100 | > 100 | > 100 | > 100 |  |  |  |  |  |  |  |  | 
Nc1nccc2c1ncn2C1C=C(CO)C(O)C1O (centres undefined) | > 1000 | > 1000 | > 1000 | > 1000 | > 1000 | > 1000 |  | > 1000 | > 1000 | > 1000 | 0.852 | > 1000 | 23.9 | 0.755 | 269 | 6.88 | 335 | > 1000 | 1.91
O=[P+](O)c1cccs1 | > 100 | > 100 | > 100 |  | > 100 | > 100 | > 100 | > 100 | > 100 | > 100 |  |  |  |  |  |  |  |  | 
